# Laboratory results taken from patent publication US20090017047A1, “Preparation for the Prevention and Treatment of Stress Conditions as Well as Functional and Organic Disorders of the Nervous System and Metabolic Disorders” (priority 2004, published 2009).
# Like-named read-outs stand apart in the source and are kept apart here.
# What was measured:
# [1] = system: NMDA receptors (N-methyl-D-aspartate receptors); conditions: opening of the ion channel induced by glutamate
# [2] = very low application dosage
# [3] = Pharmacological effect and tolerability of glycine on administration; conditions: in vivo
structure (smiles),measurement,setting,value
NCC(=O)O [Glycine],effect on the excitatory NMDA receptors,[1],shows an effect as a co-transmitter
same,uptake into the central nervous system,"[2]; application via the mucous membranes, avoiding the first-pass effect",very fast uptake
same,uptake into the central nervous system,[2],very quick uptake
same,negative effects with other applications of drugs,[3],No negative effects
same,time until the preparation acts,[3],5 to 10 min
same,undesired side-effects,[3],have not been proven
same,undesired side-effects,[3]; listed as glycine,No undesired side-effects have been established
